Legend:
[1] = biological target: T1, KRAS (G12D) (Homo sapiens, UniProt P01116, G12D); test: KRAS (G12D) cellular degradation assay in AsPC-1 cells; type: cell-based; conditions: 24 hours, antibody fluorescence (Odyssey CLX), DC50 half-maximal degradation concentration
T1 construct: in-cell western with KRAS G12D antibody after 24 h
How it was run: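 AsPC-1 cells were seeded at 22,000/well for degradation and 3,500/well for proliferation. Compounds in 1:3 dilutions ([…] to 1.5 nM final) ran 24 h for degradation, read by in-cell immunofluorescence of KRAS G12D normalised to β-actin, and 6 days for proliferation (CellTiter Glo luminescence). DC50/IC50 came from dose-response fits.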

[2] = system: AsPC-1 cells; test: AsPC-1 cell proliferation assay (CellTiter Glo); type: cell-based; conditions: Homo sapiens, ASPC1, 144 h, 6 days
Protocol: ASPC-1 and PK-59 cellular assays ASPC-1 (ATCC cat. CRL-1682) and PK-59 (Nanjing Cobioer, Cat. No. CBP61184) were used in KRAS cellular degradation, pERK inhibition and proliferation assays. The two cell lines were maintained following vendor's instructions. For monitoring KRAS (G12D) cellular degradation and pERK biomarker inhibition, cells were seeded into a 96-well plate with 22,000 and 16,000 cells/well for assays in ASPC-1 and PK-59, respectively. Cells were incubated at 37° C. with 5% CO2 and cell density was monitored until ^~90% confluency was reached. Compounds were serially diluted at a 1:3 ratio and dispensed into each well at final concentrations ranging from […] to 1.5 nM. After incubation for 24 hours, the culture media were removed and the cells were subjected to fixation, permeabilization and blocking (Intercept blocking buffer, Li-cor). For KRAS (G12D) degradation, the cells were treated with primary antibody (KRAS G12D antibody, Cell Signaling Technologies, Cat. No. CST14429) and for β-actin (β-actin mAb, Beyotime, Cat. No. AF-5001), and followed by secondary antibodies, Anti-rabbit IgG (H+L) (DyLight™ 800 4×PEG Conjugate) or IRDye® 680RD Goat anti-Mouse IgG. For pERK inhibition assay, cells were treated with primary antibodies for pERK (Phospho-p44/42 MAPK (Erk1/2) (Thr202/Tyr204) (D13.14.4E) XP® Rabbit mAb, Cell Signaling Technologies, Cat. No. CST-4370) and β-actin (β-actin mAb, Beyotime, Cat. No. AF-5001), and followed by secondary antibodies, Anti-rabbit IgG (H+L) (DyLight™ 800 4×PEG Conjugate) or IRDye® 680RD Goat anti-Mouse IgG. Fluorescence signals were read on Odyssey CLX instrument. For cell proliferation assays, cells were seeded into a 96-well plate at 3,500 and 800 cells/well for assays in ASPC-1 and PK-59, respectively. Cells were incubated at 37° C. with 5% CO2 for overnight. Compounds were serially diluted at a 1:3 ratio and dispensed into each well at final concentrations ranging from […] to 1.5 nM. After incubation for 6 days, cell viability reagent (CellTiter Glo, Promega, Cat. No. G7573) was added to each well and luminescence was recorded on Molecular Devices Spectramax iD3 instrument. IC50, half-maximal inhibitory concentration for pERK inhibition or cell proliferation, and DC50, half-maximal degradation concentration in KRAS (G12D) cellular degradation were determined by fitting the corresponding dose response curves using GraphPad Prism software.
Wherein “A” means the value <10 nM, “B” means 10 nM<the value <100 nM, “C” means 100 nM<the value <1000 nM, and “D” means the value >1000 nM, in which, the value means the value of DC50 or IC50. NT means not tested.

T1 sequence (P01116 1-188 isoform P01116-2 G12D): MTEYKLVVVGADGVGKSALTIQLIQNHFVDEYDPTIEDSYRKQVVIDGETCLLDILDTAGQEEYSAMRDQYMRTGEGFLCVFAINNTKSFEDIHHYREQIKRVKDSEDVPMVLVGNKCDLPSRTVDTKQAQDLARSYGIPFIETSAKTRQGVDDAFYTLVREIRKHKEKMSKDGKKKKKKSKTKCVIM

Compound	DC50 [1]	IC50 [2]
CCn1nccc1-c1ccc([C@H](CO)NC(=O)[C@@H]2C[C@@H](O)CN2C(=O)[C@H](C(C)C)n2cc(-c3ccc(COc4c(-c5c(C)c(F)cc6[nH]ncc56)c(C5CC5)cc5c(N6C[C@@H]7C[C@H]6CN7)nc(OC6CCN(S(C)(=O)=O)CC6)nc45)cc3)nn2)cc1 [Example 38, (2S,4R)-1-((2S)-2-(4-(4-(((4-((1S,4S)-2,5-diazabicyclo[2.2.1]heptan-2-yl)-6-cyclopropyl-7-(6-fluoro-5-methyl-1H-indazol-4-yl)-2-((1-(methylsulfonyl)piperidin-4-yl)oxy)quinazolin-8-yl)oxy)methyl)phenyl)-1H-1,2,3-triazol-1-yl)-3-methylbutanoyl)-N—((R)-1-(4-(1-ethyl-1H-pyrazol-5-yl)phenyl)-2-hydroxyethyl)-4-hydroxypyrrolidine-2-carboxamide]	< 10 nM	< 10 nM
CO[C@@H](C)COc1nc(N2C[C@@H]3C[C@H]2CN3)c2cc(C3CC3)c(-c3c(C)c(F)cc4[nH]ncc34)c(OCc3ccc(-c4cn([C@H](C(=O)N5C[C@H](O)C[C@H]5C(=O)N[C@H](C#Cc5ccc(F)cc5F)CO)C(C)C)nn4)cc3)c2n1 [Example 40, (2S,4R)-1-((2S)-2-(4-(4-(((4-((1S,4S)-2,5-diazabicyclo[2.2.1]heptan-2-yl)-6-cyclopropyl-7-(6-fluoro-5-methyl-1H-indazol-4-yl)-2-((S)-2-methoxypropoxy)quinazolin-8-yl)oxy)methyl)phenyl)-1H-1,2,3-triazol-1-yl)-3-methylbutanoyl)-N—((R)-4-(2,4-difluorophenyl)-1-hydroxybut-3-yn-2-yl)-4-hydroxypyrrolidine-2-carboxamide]	10 to 100 nM	10 to 100 nM
CO[C@@H](C)COc1nc(N2C[C@@H]3C[C@H]2CN3)c2cc(C3CC3)c(-c3c(C)c(F)cc4[nH]ncc34)c(OCc3ccc(-c4cn([C@H](C(=O)N5C[C@H](O)C[C@H]5C(=O)N[C@H](C#Cc5scnc5C)CO)C(C)C)nn4)cc3)c2n1 [Example 41, (2S,4R)-1-((2S)-2-(4-(4-(((4-((1S,4S)-2,5-diazabicyclo[2.2.1]heptan-2-yl)-6-cyclopropyl-7-(6-fluoro-5-methyl-1H-indazol-4-yl)-2-((S)-2-methoxypropoxy)quinazolin-8-yl)oxy)methyl)phenyl)-1H-1,2,3-triazol-1-yl)-3-methylbutanoyl)-4-hydroxy-N—((R)-1-hydroxy-4-(4-methylthiazol-5-yl)but-3-yn-2-yl)pyrrolidine-2-carboxamide]	< 10 nM	< 10 nM
CO[C@@H](C)COc1nc(N2C[C@@H]3C[C@H]2CN3)c2cc(C3CC3)c(-c3c(C)c(F)cc4[nH]ncc34)c(OCc3ccc(-c4cn([C@H](C(=O)N5C[C@H](O)C[C@H]5C(=O)N[C@H](C#Cc5c(F)cccc5F)CO)C(C)C)nn4)cc3)c2n1 [Example 42, (2S,4R)-1-((2S)-2-(4-(4-(((4-((1S,4S)-2,5-diazabicyclo[2.2.1]heptan-2-yl)-6-cyclopropyl-7-(6-fluoro-5-methyl-1H-indazol-4-yl)-2-((S)-2-methoxypropoxy)quinazolin-8-yl)oxy)methyl)phenyl)-1H-1,2,3-triazol-1-yl)-3-methylbutanoyl)-N—((R)-4-(2,6-difluorophenyl)-1-hydroxybut-3-yn-2-yl)-4-hydroxypyrrolidine-2-carboxamide]	10 to 100 nM	10 to 100 nM
CCn1nccc1-c1ccc([C@H](CO)NC(=O)[C@@H]2C[C@@H](O)CN2C(=O)[C@H](C(C)C)n2cc(-c3ccc(COc4c(-c5c(C)c(F)cc6[nH]ncc56)c(C5CC5)cc5c(N6C[C@@H]7C[C@H]6CN7)nc(OC6CCC7(CC6)COC7)nc45)cc3)nn2)cc1 [Example 43, (2S,4R)-1-((2S)-2-(4-(4-(((2-((2-oxaspiro[3.5]nonan-7-yl)oxy)-4-((1S,4S)-2,5-diazabicyclo[2.2.1]heptan-2-yl)-6-cyclopropyl-7-(6-fluoro-5-methyl-1H-indazol-4-yl)quinazolin-8-yl)oxy)methyl)phenyl)-1H-1,2,3-triazol-1-yl)-3-methylbutanoyl)-N—((R)-1-(4-(1-ethyl-1H-pyrazol-5-yl)phenyl)-2-hydroxyethyl)-4-hydroxypyrrolidine-2-carboxamide]	< 10 nM	< 10 nM

— patent US20260295053A1, “COMPOUNDS FOR DEGRADATION AND INHIBITION OF KRAS (G12D) PROTEIN” (Shenzhen Ionova Life Science Co., Ltd., priority 2023, published 2026)
